Results: US10464883B2, “Compounds and methods for the treatment of neurodegenerative diseases” (Resilio Therapeutics, LLC, priority 2015, dated 2019)

Assay: pH stability of prodrugs of DFMO in PBS buffer (LC/MS/MS)
Type: physicochemical
Protocol: The stability of prodrugs of DFMO to different pH conditions over time was assayed. Prodrugs were reconstituted in dimethylsulfoxide (DMSO), diluted into phosphate buffered saline (PBS) of different pH values, incubated for different lengths of time at room temperature, and then analyzed by LC/MS/MS for changes in the levels of each prodrug. […] Following this initial phase, the (2)-prodrug was reasonably stable over the next 24 hours so that less than 20% of the intact prodrug was lost at pH 3 and 5, and about 60% of the intact material was lost at pH 8 over a day. […] Similar results were obtained with the other prodrugs tested.

- intact prodrug lost over the next 24 hours (PBS pH 3, room temperature, 24 hours following initial phase): less than 20%
- decrease in the amount of intact, non-degraded prodrug over the first hour of incubation (PBS pH 3, room temperature): about 60%
- intact prodrug lost over the next 24 hours (PBS pH 5, room temperature, 24 hours following initial phase): less than 20%
- decrease in the amount of intact, non-degraded prodrug over the first hour of incubation (PBS pH 5, room temperature): 30-35%
- intact material lost over a day (PBS pH 8, room temperature, 24 hours following initial phase): about 60%
- decrease in the amount of intact, non-degraded prodrug over the first hour of incubation (PBS pH 8, room temperature): 30-35%
Structure (SMILES): CC(OC(=O)NCCCC(N)(C(=O)O)C(F)F)OC(=O)C(C)C (stereo not drawn) [(2)-prodrug, 2-amino-2-(difluoromethyl)-5-[1-(2-methylpropanoyloxy)ethoxycarbonylamino]pentanoic acid]
